Patent US20080280837A1, “Biologically Active Compounds with Anti-Angiogenic Properties” (priority 2004, published 2008)

Molecular target: T1, Human SST5 somatostatin receptor (SSTR5) (Homo sapiens, UniProt P35346)
T1 construct: expressed in transfected cells; host or cells: HEK-293 EBNA
Experiment: Filter plate assay for SST5 receptor, displacement of [125I]SST-14
Assay type: binding
Method: Receptor membrane preparations containing the desired cloned receptor (for example cloned human somatostatin receptor subtype 5, SSTR5) and radio-labeled ligand (for example 3-[^125I]iodotyrosyl^11 Somatostatin-14)) were diluted at the concentration required for testing and according to the specific parameters associated with the selected receptor-ligand combination, including receptor Bmax, ligand Kd and any other parameters necessary to optimize the experimental conditions. When tested for competition activity to the reference ligand, “compound 1” was mixed with membrane suspension and the radiolabeled reference ligand (with or without an excess of cold ligand to the receptor for determination of non-specific binding) and incubated at the temperature required by internal standard operating procedures. Following incubation, the binding reaction was stopped by the addition of ice-cold washing buffer and filtered on appropriate filters, which are then counted. Data analysis and curve-fitting was performed with XLfit (IDBS).
10 mM solutions of test compounds in 100% DMSO were prepared. ˜160 μl was used for each dilution (20 μl/well in triplicate).
A 1.25 mM assay stock was prepared by making a 1:8 dilution of the 10 mM solution. (To 30 μL of the 10 mM solution was added 210 μL milli-Q H2O. A 1:5 dilution series in milli-Q H2O was then prepared.
Assays were performed in triplicate at each concentration within the 1:5 dilution series: 250 μM, 50 μM, 10 μM, […], 0.4 μM, 0.08 μM, 0.016 μM, 0.0032 μM, etc. (for SST4 assay) and 125 μM, 10 μM, 2 μM, 1 μM, 0.5 μM, etc (for SST5 assay).
Human SST5 somatostatin receptor was transfected into HEK-293 EBNA cells. Membranes were suspended in assay buffer (50 mM Tris-HCl, 1 mM EGTA, 5 mM MgCl2, 10% sucrose, pH 7.5).
After thawing the frozen receptor preparation rapidly, receptors were diluted with binding buffer, homogenized, and kept on ice. • 1. Use Multiscreen glass fiber filter plates (Millipore, Cat No MAFCNOB10) precoated with o.5% PEI for ˜2 hr at 4° C. Before use add 200 μl/well assay buffer and filter using Multiscreen Separation System. • 2. Incubate 5.5 μg of membranes (40 μl of a 1:40 dilution), buffer and [^125I]SST-14 (4 nM, ˜80 000 cpm, 2000 Ci/mmol) in a total volume of 200 μl for 60 min at 25° C. […] Prepare serial dilutions (1:5) of compounds, as described above and instead of adding SST-14 in well, add 20 μl of compounds (Table 1). • 3. Filter using Multiscreen Separation System with 5×0.2 ml ice-cold Assay buffer. • 4. Remove the plastic underdrain and dry plate in oven for 1 hr at 40° C. • 5. Seal tape to the bottom of the plate. • 6. Add 50 μl/well scintillant (Supermix, Wallac, Cat No 1200-439). • 7. Seal and count in the BJET, program 2.
In primary screening experiments compounds were tested in duplicate for a particular concentration.

T1 sequence (P35346 whole entry): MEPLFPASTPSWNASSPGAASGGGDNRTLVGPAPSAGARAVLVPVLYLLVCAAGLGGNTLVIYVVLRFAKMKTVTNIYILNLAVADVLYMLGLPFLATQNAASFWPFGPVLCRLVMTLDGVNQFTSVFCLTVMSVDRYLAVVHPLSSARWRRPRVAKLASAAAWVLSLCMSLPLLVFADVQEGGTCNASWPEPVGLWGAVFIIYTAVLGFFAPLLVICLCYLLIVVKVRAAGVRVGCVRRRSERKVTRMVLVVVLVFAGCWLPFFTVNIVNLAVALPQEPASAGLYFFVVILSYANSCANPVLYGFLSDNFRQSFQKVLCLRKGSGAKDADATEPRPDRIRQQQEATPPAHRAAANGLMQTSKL

Compound | SSTR5 Inhib 0.5 uM % (inhibition of binding of SST-14 to SSTR5) | SSTR5 Inhib 10 uM % (inhibition of binding of SST-14 to SSTR5)
COC[C@H]1OC(OCc2ccc(-c3ccccc3)cc2)[C@H](NC(=O)CCCN)[C@@H](OCc2ccc(-c3ccccc3)cc2)[C@@H]1O (stereo partly drawn) [Compound 31] | 85% | 96%
COC1C(O)C(COCc2ccc(-c3ccccc3)cc2)OC(OCc2ccc(-c3ccccc3)cc2)C1NC(=O)CCNC(=N)N (stereo not drawn) [Compound 136] | 26% | 79%
COC[C@H]1OC(OCc2ccc3ccccc3c2)[C@H](NC(=O)CCCNC(=N)N)[C@@H](OCc2ccc(Cl)cc2)[C@@H]1O (stereo partly drawn) [Compound 23] | 80% | 96%
COC[C@H]1OC(OCCc2ccccc2)[C@H](NC(=O)CCN)[C@H](OCc2ccc(Cl)cc2)[C@@H]1O (stereo partly drawn) [Compound 34] | 61% | 95%
COC[C@H]1OC(OCCc2ccccc2)[C@H](NC(=O)CCCN)[C@@H](OCc2ccc(-c3ccccc3)cc2)[C@@H]1O (stereo partly drawn) [Compound 65] | 61% | 90%
CSC1O[C@H](COCc2ccccc2)[C@@H](O)[C@@H](OCc2ccc(Cl)cc2)[C@H]1NC(=O)CCNC(=N)N (stereo partly drawn) [Compound 118] | 37% | 81%
COC[C@H]1OC(OCc2ccc3ccccc3c2)[C@H](NC(=O)CCCNC(=N)N)[C@H](OCc2ccccc2)[C@@H]1O (stereo partly drawn) [Compound 64] | 57% | 90%
CO[C@H]1[C@H](O)[C@@H](COCc2ccc(-c3ccccc3)cc2)OC(OCc2ccc(-c3ccccc3)cc2)[C@@H]1NC(=O)CCCN (stereo partly drawn) [Compound 179] | 29% | 70%
CSC1O[C@H](COCc2ccc(Cl)cc2)[C@@H](O)[C@@H](OCc2ccc3ccccc3c2)[C@H]1NC(=O)CCNC(=N)N (stereo partly drawn) [Compound 125] | 34% | 80%
COC[C@H]1OC(OCCc2ccccc2)[C@H](NC(=O)CCCN)[C@@H](OCc2ccc(Cl)cc2)[C@@H]1O (stereo partly drawn) [Compound 42] | 77% | 94%
COC[C@H]1OC(OCc2ccc(-c3ccccc3)cc2)[C@H](NC(=O)CCCNC(=N)N)[C@@H](OCc2ccc(-c3ccccc3)cc2)[C@@H]1O (stereo partly drawn) [Compound 55] | 71% | 91%
COC1C(O)C(COCc2ccc3ccccc3c2)OC(OCc2ccc(Cl)cc2)C1NC(=O)C1CCN(C(=N)N)CC1 (stereo not drawn) [Compound 79] | 55% | 88%
COC[C@H]1OC(OCCc2ccccc2)[C@H](NC(=O)CCN)[C@H](OCc2ccccc2)[C@@H]1O (stereo partly drawn) [Compound 106] | 53% | 83%
CSC1O[C@H](COCc2ccc(-c3ccccc3)cc2)[C@@H](O)[C@@H](OCc2ccc(Cl)cc2)[C@H]1NC(=O)CCCN (stereo partly drawn) [Compound 148] | 38% | 76%
COC[C@H]1OC(OCCc2ccccc2)[C@H](NC(=O)CCCN)[C@@H](OCc2ccc(Cl)cc2)[C@@H]1O (stereo partly drawn) [Compound 145] | 45% | 78%
COC1C(O)C(COCc2ccc(-c3ccccc3)cc2)OC(OCc2ccc(Cl)cc2)C1NC(=O)CCCN (stereo not drawn) [Compound 40] | 66% | 95%
COC[C@H]1OC(OCc2ccc(Cl)cc2)[C@H](NC(=O)CCCN)[C@@H](OCc2ccc(-c3ccccc3)cc2)[C@@H]1O (stereo partly drawn) [Compound 90] | 52% | 86%
COC[C@H]1OC(OCc2ccc(-c3ccccc3)cc2)[C@H](NC(=O)CCCN)[C@@H](OCc2ccc(Cl)cc2)[C@@H]1O (stereo partly drawn) [Compound 63] | 50% | 90%
COC[C@H]1OC(OCc2ccc3ccccc3c2)[C@H](NC(=O)CCNC(=N)N)[C@@H](OCc2ccc(-c3ccccc3)cc2)[C@@H]1O (stereo partly drawn) [Compound 86] | 58% | 87%
COC[C@H]1OC(OCc2ccc(-c3ccccc3)cc2)[C@H](NC(=O)CCNC(=N)N)[C@@H](OCc2ccc(Cl)cc2)[C@@H]1O (stereo partly drawn) [Compound 108] | 47% | 83%
COC[C@H]1OC(OCc2ccc(Cl)cc2)[C@H](NC(=O)CCCN)[C@H](OCc2ccccc2)[C@@H]1O (stereo partly drawn) [Compound 117] | 46% | 82%
COC[C@H]1OC(OCc2ccc3ccccc3c2)[C@H](NC(=O)CCCN)[C@@H](OCc2cccc(O)c2)[C@@H]1O (stereo partly drawn) [Compound 82] | 48% | 87%
CSC1O[C@H](COCc2ccccc2)[C@@H](O)[C@@H](OCc2ccc(-c3ccccc3)cc2)[C@H]1NC(=O)CCCNC(=N)N (stereo partly drawn) [Compound 155] | 46% | 76%
COC[C@H]1OC(OCc2ccc3ccccc3c2)[C@H](NC(=O)CCCN)[C@@H](OCc2ccc(-c3ccccc3)cc2)[C@@H]1O (stereo partly drawn) [Compound 29] | 77% | 96%
COC[C@H]1OC(OCc2ccc3ccccc3c2)[C@H](NC(=O)CCN)[C@H](OCc2ccccc2)[C@@H]1O (stereo partly drawn) [Compound 21] | 81% | 97%
CSC1O[C@H](COCc2ccc3ccccc3c2)[C@@H](O)[C@@H](OCc2ccc3ccccc3c2)[C@H]1NC(=O)CCNC(=N)N (stereo partly drawn) [Compound 114] | 47% | 82%
COC1C(O)C(COCc2ccc(-c3ccccc3)cc2)OC(OCc2ccccc2)C1NC(=O)CCCNC(=N)N (stereo not drawn) [Compound 171] | 44% | 72%
CO[C@H]1[C@H](O)[C@@H](COCc2ccc3ccccc3c2)OC(OCc2ccc3ccccc3c2)[C@@H]1NC(=O)CNC(=N)N (stereo partly drawn) [Compound 126] | 57% | 80%
COC[C@H]1OC(OCc2ccc(-c3ccccc3)cc2)[C@H](NC(=O)CCCNC(=N)N)[C@@H](OCc2ccc(-c3ccccc3)cc2)[C@@H]1O (stereo partly drawn) [Compound 77] | 50% | 88%
COC[C@H]1OC(OCc2ccc3ccccc3c2)[C@H](NC(=O)CCNC(=N)N)[C@H](OCc2ccc3ccccc3c2)[C@@H]1O (stereo partly drawn) [Compound 57] | 64% | 91%
